For twelve compounds, Kd results are on record in US20260116920A1, “HUMAN TRANSFERRIN RECEPTOR BINDING PEPTIDE” (PEPTIDREAM INC., priority 2021, published 2026).

The structures appear in SMILES notation. Positions of bridges follow the written chain, without caps; N, C: chain ends. Non-standard residues stand in square brackets, D forms with d. Residues, ends and D or L forms follow the SMILES beside them. *: point of attachment. Ala(1-CH2CO2H-4-piperidyl) = N[C@@H](CC1CCN(CC(=O)O)CC1)C(=O)O; Trp(1-CH2COOH) = N[C@@H](Cc1cn(CC(=O)O)c2ccccc12)C(=O)O; NH(CH2CH2O)8Me = COCCOCCOCCOCCOCCOCCOCCOCCN*; NMePhe(3-Cl) = CN[C@@H](Cc1cccc(Cl)c1)C(=O)O; NMeY = CN[C@@H](Cc1ccc(O)cc1)C(=O)O; 4Pal = N[C@@H](Cc1ccncc1)C(=O)O; PEG4 = NCCOCCOCCOCCOCCC(=O)O; Carboxymethyl = O=C(O)C*; NHCH2CH2OH = OCCN* Some results are limits rather than exact numbers.

T1 sequence (P02786 89-760 limits assumed): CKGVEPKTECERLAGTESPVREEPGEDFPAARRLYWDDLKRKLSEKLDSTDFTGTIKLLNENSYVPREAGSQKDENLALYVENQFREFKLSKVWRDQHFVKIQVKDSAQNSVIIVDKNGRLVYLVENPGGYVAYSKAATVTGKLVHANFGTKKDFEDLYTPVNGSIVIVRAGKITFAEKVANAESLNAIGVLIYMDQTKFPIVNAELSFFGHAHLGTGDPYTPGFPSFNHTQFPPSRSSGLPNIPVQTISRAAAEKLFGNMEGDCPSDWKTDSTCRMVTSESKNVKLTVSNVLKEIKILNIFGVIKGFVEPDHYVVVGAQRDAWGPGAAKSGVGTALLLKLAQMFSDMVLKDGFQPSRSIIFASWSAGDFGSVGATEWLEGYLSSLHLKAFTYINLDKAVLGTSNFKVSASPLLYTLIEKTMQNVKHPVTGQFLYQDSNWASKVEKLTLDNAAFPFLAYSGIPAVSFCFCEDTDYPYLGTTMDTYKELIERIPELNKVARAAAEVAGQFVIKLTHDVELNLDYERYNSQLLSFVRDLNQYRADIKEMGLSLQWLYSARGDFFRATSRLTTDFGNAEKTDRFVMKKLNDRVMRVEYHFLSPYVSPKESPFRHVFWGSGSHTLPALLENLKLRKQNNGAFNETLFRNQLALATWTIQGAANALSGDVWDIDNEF

This test has as its target T1, human transferrin receptor (hTfR) (Homo sapiens, UniProt P02786).
T1 construct: made in house
Kind of test: Evaluation of molecular interaction between transferrin receptor (hTfR) and peptide using surface plasmon resonance (SPR). Type of test: binding. Conditions: KD class for binding to hTfR by SPR; peptide with the linker shown in the same line; 'low signal indicates no activity'; read-out: SPR. The protocol:
Evaluation Test of Molecular Interaction Between Transferrin Receptor (hTfR) and Peptide Using Surface Plasmon Resonance (SPR)
The intermolecular interactions of various synthesized peptides with the transferrin receptor (hTfR) by surface plasmon resonance (SPR) of the peptides were tested by the methods described below. Specific test methods are shown below.
NTA sensor chip (Global Life Sciences Technologies Japan K.K.) was inserted into BiacoreT200 (Global Life Sciences Technologies Japan K.K.), then the priming operation was performed three times by using running buffer containing: 10 mM HEPES pH 8.0 (Nacalai Tesque, Inc.), 150 mM NaCl (Nacalai Tesque, Inc.), 0.05% Tween 20 (Nacalai Tesque, Inc.), 0.1% BSA (SIGMA-ALDRICH) and 1.0% DMSO (FUJIFILM Wako Pure Chemical Corporation), and equilibrated at a flow rate of 30 μL/min. 350 mM EDTA solution was reacted at a flow rate of 10 μL/min for 60 seconds, 0.5 mM […] solution (Kishida Chemical Co., Ltd.) was reacted at a flow rate of 10 μL/min for 60 seconds, and then the NTA sensor chip was washed with 3 mM EDTA solution (Nacalai Tesque, Inc.) at a flow rate of 10 μL/min for 60 seconds. After mixing 50 μL each of 60 mM EDC solution (Global Life Science Technologies Japan K.K.) and 650 mM NHS solution (Global Life Science Technologies Japan K.K.), the reaction was carried out at a flow rate of 10 μL/min for 420 seconds. 150 μL of 0.5 μM hTfR dimer solution was prepared by dilution with running buffer and reacted at a flow rate of 10 μL/min for 300 seconds to immobilize hTfR on the NTA sensor chip. For the human transferrin receptor (hTfR), recombinant hTfR described in Example 2 of WO2018/124121 was used. After immobilization, capping was performed by reacting with 1.0 M ethanolamine solution (Global Life Sciences Technologies Japan K.K.) at a flow rate of 10 μL/min for 420 seconds. Peptide lysate prepared in DMSO solution to 10 mM was diluted with running buffer to be a final concentration of 10 μM peptide lysate, then peptide solutions of 100 nM, 50 nM, 25 nM, 10 nM, and 5 nM were prepared. Using the above samples, the kinetics of the peptide against hTfR was obtained by SPR measurement.
The kinetic evaluation model was single-cycle kinetics, and curve fitting was performed using Biacore T200 Evaluation Software Version 3.0 (Global Life Science Technologies Japan K.K.). The binding of the peptide to hTfR was evaluated by performing curve fitting on the obtained sensorgram by least squares method and obtaining the KD value.
For the compound `CC[C@H](C)[C@@H]1NC(=O)[C@H](Cc2ccc(OCC(=O)O)cc2)NC(=O)[C@H](Cc2ccc(O)cc2)NC(=O)[C@H](CC(N)=O)NC(=O)[C@H](Cc2c[nH]c3ccccc23)NC(=O)[C@H](C(C)C)NC(=O)[C@H](Cc2cccc(Cl)c2)N(C)C(=O)[C@H](C(C)C)NC(=O)[C@H](C)NC(=O)CSC[C@@H](C(=O)NCCOCCOCCOCCOCCC(N)=O)NC(=O)[C@H](Cc2ccc(O)cc2)N(C)C(=O)[C@H](Cc2ccncc2)NC(=O)[C@H](CCCNC(=N)N)NC(=O)[C@H](CCCNC(=N)N)NC(=O)[C@H]([C@@H](C)CC)NC1=O` [894_0364], the Kd is 1 to 100 nM.

For `CC[C@H](C)[C@@H]1NC(=O)[C@H](Cc2ccc(OC)cc2)NC(=O)[C@H](Cc2ccc(O)cc2)NC(=O)[C@H](CC(N)=O)NC(=O)[C@H](Cc2c[nH]c3ccccc23)NC(=O)[C@H](C(C)C)NC(=O)[C@H](Cc2cccc(Cl)c2)N(C)C(=O)[C@H](C(C)C)NC(=O)[C@H](C)NC(=O)CSC[C@@H](C(=O)NCCOCCOCCOCCOCCC(N)=O)NC(=O)[C@H](Cc2ccc(O)cc2)N(C)C(=O)[C@H](Cc2ccncc2)NC(=O)[C@H](CCC(=O)NCCOCCOCCOCCOCCOCCOCCOCCOC)NC(=O)[C@H](CCCNC(=N)N)NC(=O)[C@H]([C@@H](C)CC)NC1=O` [894_0366] ({CH2CO}-AV[NMePhe(3-Cl)]VWNYY(Me)IIRE(NH(CH2CH2O)8Me)[4Pal][NMeY]C[PEG4]-NH2; thioether N-15), the Kd lay in the range of 1 to 100 nM.

In the case of `CC[C@H](C)[C@@H]1NC(=O)[C@H](Cc2ccc(OCC(=O)O)cc2)NC(=O)[C@H](Cc2ccc(O)cc2)NC(=O)[C@H](CC(N)=O)NC(=O)[C@H](Cc2cn(CC(=O)O)c3ccccc23)NC(=O)[C@H](C(C)C)NC(=O)[C@H](Cc2cccc(Cl)c2)N(C)C(=O)[C@H](C(C)C)NC(=O)[C@H](C)NC(=O)CSC[C@@H](C(=O)NCCOCCOCCOCCOCCC(N)=O)NC(=O)[C@H](Cc2ccc(O)cc2)N(C)C(=O)[C@H](Cc2ccccc2)NC(=O)[C@H](CCCNC(=N)N)NC(=O)[C@H](CCCCNC(=O)OC)NC(=O)[C@H]([C@@H](C)CC)NC1=O` [894_0378], the Kd was less than 1 nM.

Regarding `CC[C@H](C)[C@@H]1NC(=O)[C@H](Cc2ccc(OCC(=O)O)cc2)NC(=O)[C@H](Cc2ccc(O)cc2)NC(=O)[C@H](CC(N)=O)NC(=O)[C@H](Cc2cn(CC(=O)O)c3ccccc23)NC(=O)[C@H](C(C)C)NC(=O)[C@H](Cc2cccc(Cl)c2)N(C)C(=O)[C@H](C(C)C)NC(=O)[C@H](C)NC(=O)CSC[C@@H](C(=O)NCCOCCOCCOCCOCCC(N)=O)NC(=O)[C@H](Cc2ccc(O)cc2)N(C)C(=O)[C@H](Cc2ccccc2)NC(=O)[C@H](CCCCNC(=O)OC)NC(=O)[C@H](CCCNC(=N)N)NC(=O)[C@H]([C@@H](C)CC)NC1=O` [894_0379], the Kd was in the range of 1 to 100 nM.

For the compound `CC[C@H](C)[C@@H]1NC(=O)[C@H](Cc2ccc(OCC(=O)O)cc2)NC(=O)[C@H](Cc2ccc(O)cc2)NC(=O)[C@H](CC(N)=O)NC(=O)[C@H](Cc2cn(CC(=O)O)c3ccccc23)NC(=O)[C@H](C(C)C)NC(=O)[C@H](Cc2cccc(Cl)c2)N(C)C(=O)[C@H](C(C)C)NC(=O)[C@H](C)NC(=O)CSC[C@@H](C(=O)NCCOCCOCCOCCOCCC(N)=O)NC(=O)[C@H](Cc2ccc(O)cc2)N(C)C(=O)[C@H](Cc2ccccc2)NC(=O)[C@H](CCCNC(=N)N)NC(=O)[C@H](CCC(=O)NCCO)NC(=O)[C@H]([C@@H](C)CC)NC1=O` [894_0380], the Kd was 1 to 100 nM.

As for `CC[C@H](C)[C@@H]1NC(=O)[C@H](Cc2ccc(OCC(=O)O)cc2)NC(=O)[C@H](Cc2ccc(O)cc2)NC(=O)[C@H](CC(N)=O)NC(=O)[C@H](Cc2cn(CC(=O)O)c3ccccc23)NC(=O)[C@H](C(C)C)NC(=O)[C@H](Cc2cccc(Cl)c2)N(C)C(=O)[C@H](C(C)C)NC(=O)[C@H](C)NC(=O)CSC[C@@H](C(=O)NCCOCCOCCOCCOCCC(N)=O)NC(=O)[C@H](Cc2ccc(O)cc2)N(C)C(=O)[C@H](Cc2ccccc2)NC(=O)[C@H](CCC(=O)NCCO)NC(=O)[C@H](CCCNC(=N)N)NC(=O)[C@H]([C@@H](C)CC)NC1=O` [894_0381], the Kd lay in the range of 1 to 100 nM.

Take `CC[C@H](C)[C@@H]1NC(=O)[C@H](Cc2ccc(OCC(=O)O)cc2)NC(=O)[C@H](Cc2ccc(O)cc2)NC(=O)[C@H](CC(N)=O)NC(=O)[C@H](Cc2cn(CC(=O)O)c3ccccc23)NC(=O)[C@H](C(C)C)NC(=O)[C@H](Cc2cccc(Cl)c2)N(C)C(=O)[C@H](C(C)C)NC(=O)[C@H](C)NC(=O)CSC[C@@H](C(=O)NCCOCCOCCOCCOCCC(N)=O)NC(=O)[C@H](Cc2ccc(O)cc2)N(C)C(=O)[C@H](Cc2ccccc2)NC(=O)[C@H](CCC(=O)NCCO)NC(=O)[C@H](CCC(=O)NCCO)NC(=O)[C@H]([C@@H](C)CC)NC1=O` [894_0382] ({CH2CO}-AV[NMePhe(3-Cl)]V[Trp(1-CH2COOH)]NYY(Carboxymethyl)IIE(NHCH2CH2OH)E(NHCH2CH2OH)F[NMeY]C[PEG4]-NH2; thioether N-15): the Kd was less than 1 nM.

With `CC[C@H](C)[C@@H]1NC(=O)[C@H](Cc2ccc(OCC(=O)O)cc2)NC(=O)[C@H](Cc2ccc(O)cc2)NC(=O)[C@H](CC(N)=O)NC(=O)[C@H](Cc2cn(CC(=O)O)c3ccccc23)NC(=O)[C@H](C(C)C)NC(=O)[C@H](Cc2cccc(Cl)c2)N(C)C(=O)[C@H](C(C)C)NC(=O)[C@H](C)NC(=O)CSC[C@@H](C(=O)NCCOCCOCCOCCOCCC(N)=O)NC(=O)[C@H](Cc2ccc(O)cc2)N(C)C(=O)[C@H](Cc2ccccc2)NC(=O)[C@H](CCCNC(=N)N)NC(=O)[C@H](CCC(=O)N2CCN(CC(=O)O)CC2)NC(=O)[C@H]([C@@H](C)CC)NC1=O` [894_0383], the Kd lay within 1 to 100 nM.

For `CC[C@H](C)[C@@H]1NC(=O)[C@H](Cc2ccc(OCC(=O)O)cc2)NC(=O)[C@H](Cc2ccc(O)cc2)NC(=O)[C@H](CC(N)=O)NC(=O)[C@H](Cc2cn(CC(=O)O)c3ccccc23)NC(=O)[C@H](C(C)C)NC(=O)[C@H](Cc2cccc(Cl)c2)N(C)C(=O)[C@H](C(C)C)NC(=O)[C@H](C)NC(=O)CSC[C@@H](C(=O)NCCOCCOCCOCCOCCC(N)=O)NC(=O)[C@H](Cc2ccc(O)cc2)N(C)C(=O)[C@H](Cc2ccccc2)NC(=O)[C@H](CCC(=O)N2CCN(CC(=O)O)CC2)NC(=O)[C@H](CCCNC(=N)N)NC(=O)[C@H]([C@@H](C)CC)NC1=O` [894_0384], the Kd is 1 to 100 nM.

Regarding `CC[C@H](C)[C@@H]1NC(=O)[C@H](Cc2ccc(OCC(=O)O)cc2)NC(=O)[C@H](Cc2ccc(O)cc2)NC(=O)[C@H](CC(N)=O)NC(=O)[C@H](Cc2cn(CC(=O)O)c3ccccc23)NC(=O)[C@H](C(C)C)NC(=O)[C@H](Cc2cccc(Cl)c2)N(C)C(=O)[C@H](C(C)C)NC(=O)[C@H](C)NC(=O)CSC[C@@H](C(=O)NCCOCCOCCOCCOCCC(N)=O)NC(=O)[C@H](Cc2ccc(O)cc2)N(C)C(=O)[C@H](Cc2ccccc2)NC(=O)[C@H](CCCNC(=N)N)NC(=O)[C@H](CC2CCN(CC(=O)O)CC2)NC(=O)[C@H]([C@@H](C)CC)NC1=O` [894_0386] ({CH2CO}-AV[NMePhe(3-Cl)]V[Trp(1-CH2COOH)]NYY(Carboxymethyl)II[Ala(1-CH2CO2H-4-piperidyl)]RF[NMeY]C[PEG4]-NH2; thioether N-15), the Kd is less than 1 nM.

For `CC[C@H](C)[C@@H]1NC(=O)[C@H](Cc2ccc(OCC(=O)O)cc2)NC(=O)[C@H](Cc2ccc(O)cc2)NC(=O)[C@H](CC(N)=O)NC(=O)[C@H](Cc2cn(CC(=O)O)c3ccccc23)NC(=O)[C@H](C(C)C)NC(=O)[C@H](Cc2cccc(Cl)c2)N(C)C(=O)[C@H](C(C)C)NC(=O)[C@H](C)NC(=O)CSC[C@@H](C(=O)NCCOCCOCCOCCOCCC(N)=O)NC(=O)[C@H](Cc2ccc(O)cc2)N(C)C(=O)[C@H](Cc2ccccc2)NC(=O)[C@H](CC2CCN(CC(=O)O)CC2)NC(=O)[C@H](CCCNC(=N)N)NC(=O)[C@H]([C@@H](C)CC)NC1=O` [894_0387] ({CH2CO}-AV[NMePhe(3-Cl)]V[Trp(1-CH2COOH)]NYY(Carboxymethyl)IIR[Ala(1-CH2CO2H-4-piperidyl)]F[NMeY]C[PEG4]-NH2; thioether N-15), the Kd was in the range of 1 to 100 nM.

As to `CC[C@H](C)[C@@H]1NC(=O)[C@H](Cc2ccc(OCC(=O)O)cc2)NC(=O)[C@H](Cc2ccc(O)cc2)NC(=O)[C@H](CC(N)=O)NC(=O)[C@H](Cc2cn(CC(=O)O)c3ccccc23)NC(=O)[C@H](C(C)C)NC(=O)[C@H](Cc2cccc(Cl)c2)N(C)C(=O)[C@H](C(C)C)NC(=O)[C@H](C)NC(=O)CSC[C@@H](C(=O)NCCOCCOCCOCCOCCC(N)=O)NC(=O)[C@H](Cc2ccc(O)cc2)N(C)C(=O)[C@H](Cc2ccccc2)NC(=O)[C@H](CCCNC(=N)N)NC(=O)[C@H](CCCCN2CCOCC2)NC(=O)[C@H]([C@@H](C)CC)NC1=O` [894_0388], the Kd is less than 1 nM.
